Test results taken from article PMC9887599, “Synthesis, Optical Properties, and Antiproliferative Evaluation of NBD-Triterpene Fluorescent Probes” (Journal of Natural Products, 2022).

Assays:
[1] = test system: WRL68 human embryonic hepatic cells; assay: MTT cytotoxicity on nontumor cells, WRL68; assay type: cell-based; settings: for IC50: Homo sapiens, WRL68, MTT assay, nontumor cells; for SI (selectivity index, IC50 nontumor cells/IC50 cancer cells), WRL68: column beside WRL68
Description: (§1) Due to their greater cytotoxic activity, NBD conjugates 1 and 2 were selected to analyze their cytotoxic effects on healthy cells, using nontumor cell lines (HPF human pulmonary fibroblasts, IEC-18 epithelial rat ileum cells, and WRL68 human embryonic hepatic cells) (Table 3). The selectivity indices (SI) of the NBD-Aa-triterpene conjugates 1 and 2 were calculated with the formula: IC50 nontumor cells/IC50 cancer cells. Additionally, cell-viability percentages in the nontumor cells were measured, which ranged in most cases between 75 and 90%.
(§2) The effect of the synthesized compounds on the viability of tumor cells was assessed using the MTT assay, based on the ability of living cells to metabolically reduce 3-(4,5-dimethylthiazole)-2,5-diphenyltetrazole bromide, rendering formazan, a colored compound with a maximum absorbance of 570 nm. To study the cytotoxic effects of the compounds in the three cancer cell lines, the different lines were seeded in 96-well plates at a cell density per well of 5 × 10^3 for B16-F10, 6 × 10^3 for HT-29, and 15 × 10^3 for HepG2. After seeding, the plates were grown for 24 h and subsequently treated in triplicate with different compounds at different concentrations (0–200 μg/mL) for 72 h. After this time, the cells were stained by adding 100 mL of MTT (0.5 mg/mL) per well and incubated for 1 h. Subsequently, the cells were washed with phosphate-buffered saline (PBS), and formazan was resuspended in 100 μL of DMSO per well. Cell viability was measured by absorbance at 550 nm in an ELISA plate reader (Tecan Sunrise MR20–301, TECAN, Austria).
(§3) For this, Sigmaplot 12.5 software was used, and all quantitative data were expressed as means ± standard deviation (SD). All data shown are representative of at least two independent experiments performed in triplicate.

[2] = test system: HepG2 human hepatocyte carcinoma; assay: MTT cell-viability assay, HepG2; assay type: cell-based; settings: 72 h, untreated control cells as 100% viability
Description: (§4) The cytotoxic effects of 12 NBD-Aa-triterpene conjugates (1–12) were tested on three different cancer cell lines as a representation of cancers from different tissues and organs (B16-F10 murine melanoma, HT-29 human colon adenocarcinoma, and HepG2 human hepatocyte carcinoma). Cell viability was determined by MTT colorimetric analysis, with increasing concentration levels of each compound (0–200 μg/mL) and incubation for 72 h. The MTT assay was based on the metabolic reduction of 3-(4,5-dimethylthiazol-2-yl)-2,5-diphenyltetrazolium bromide (MTT) to a violet-colored compound (formazan), with a maximum absorbance at 570 nm. Cell viability was proportional to the amount of formazan and was expressed as the percentage of viable treated cells relative to untreated control cells. The concentration at which the derivatives halved the number of viable cells in the three cancer lines (IC50) was determined. […] These NBD conjugates of BO or BM also had higher IC50 values than their precursors (BO or BM), even in NBD conjugates with the shortest-chain ω-amino acid linker (6AHA) (Table 2). Due to these high IC50 values, all of these NBD-conjugated compounds were discarded for further cytometric studies.
as §2, §3

[3] = Absorption and fluorescence spectroscopy (photophysical data); assay type: physicochemical; settings: DMSO, 25 °C; for τ (half-life time of fluorescence): 485 nm pulsed LED; for Φ (fluorescence quantum yield): Coumarin 6 as standard; for (λem)max: excitation at 480 nm
B16-F10 murine melanoma = assay: MTT cell-viability assay, B16-F10; assay type: cell-based; settings: Mus musculus, 72 h, untreated control cells as 100% viability
Description: as §4, §2, §3

[4] = test system: HPF human pulmonary fibroblasts; assay: MTT cytotoxicity on nontumor cells, HPF; assay type: cell-based; settings: for IC50: Homo sapiens, Pulmonary fibroblast, MTT assay, nontumor cells; for SI (selectivity index, IC50 nontumor cells/IC50 cancer cells), HPF: column beside HPF
Description: as §1, §2, §3

[5] = Cell-viability percentages in nontumor cells, summary; assay type: cell-based; settings: human, rat; in most cases
Description: as §1
as §2, with “After this time, the cells were stained by adding 100 mL of MTT (0.5 mg/mL) per well and incubated for 1 h. Subsequently, the cells were washed with phosphate-buffered saline (PBS), and formazan was resuspended in 100 μL of DMSO per well.” left out

[6] = test system: IEC-18 epithelial rat ileum cells; assay: MTT cytotoxicity on nontumor cells, IEC-18; assay type: cell-based; settings: for IC50: Rattus norvegicus, IEC-18, MTT assay, nontumor cells; for SI (selectivity index, IC50 nontumor cells/IC50 cancer cells), IEC-18: column beside IEC-18
Description: as §1, §2, §3

[7] = test system: HT-29 human colon adenocarcinoma; assay: MTT cell-viability assay, HT-29; assay type: cell-based; settings: 72 h, untreated control cells as 100% viability
Description: as §4, §2, §3

B16-F10 cells = assay: Annexin V/propidium iodide flow cytometry of cell death, B16-F10; assay type: cell-based, mouse; settings: B16-F10, at IC50 concentration, after 72 h
Description: (§5) NBD-6AHA-triterpene conjugates 1 and 2 were selected for the characterization of their cytotoxic effects on the three cancer cell lines used. The percentages of cell death were determined using the concentrations corresponding to the IC50 values for each compound in the three cancer cell lines (B16-F10, HT-29, and HepG2). This study was conducted by flow cytometry, using double staining with DY634 annexin V/propidium iodide, which allows the identification and quantification of intact, apoptotic, or necrotic cells. Annexin DY634 (red fluorescence) is an apoptotic marker due to its ability to bind to phosphatidylserine exposed on the external cell surface. Propidium iodide (orange fluorescence) is a DNA marker that is capable of penetrating only when the cell is damaged, differentiating late apoptotic or necrotic cells from apoptotic ones. These conjugates (1 and 2) are green fluorescent probes, not causing interference in the fluorescence.
(§6) The apoptosis studies were conducted at 4, 24, and 72 h (Figure 5).
(§7) Cell death (apoptosis) was studied by flow cytometry using a FACScan (fluorescence-activated cell sorter) flow cytometer (Coulter Corporation, Hialeah, FL). […] In each experiment, approximately 10 × 10^3 cells were analyzed, and the experiment was duplicated twice.

HepG2 cells = assay: Annexin V/propidium iodide flow cytometry of cell death, HepG2; assay type: cell-based, human; settings: HepG2, at IC50 concentration, after 72 h
Description: as §5, §6, §7

HT-29 cells = assay: Annexin V/propidium iodide flow cytometry of cell death, HT-29; assay type: cell-based, human; settings: HT-29, at IC50 concentration, after 72 h
Description: as §5, §6, §7

[8] = test system: B16-F10, HT-29, and HepG2; assay: MTT cell-viability assay, summary over the three cancer cell lines; assay type: cell-based, mouse, human; settings: 72 h, stated as holding in most cases, read-out: IC50 concentrations over the three cancer cell lines, in most cases
Description: as §4, §2, §3

[9] = design: method as in PMID 26512635; settings: ethanol solution ref 45; cited from earlier work

SMILES	IC50 [1] [µM]	SI (selectivity index, IC50 nontumor cells/IC50 cancer cells), WRL68 [1]	IC50 [2] [µM]	ε (molar extinction coefficient) [3] [M^–1 cm^–1]	τ (half-life time of fluorescence) [3] [ns]	Φ (fluorescence quantum yield) [3]	(λem)max [3] [nm]	IC50 (B16-F10 murine melanoma) [µM]	IC50 [4] [µM]	SI (selectivity index, IC50 nontumor cells/IC50 cancer cells), HPF [4]	viability at 72 h [5] [%]	IC50 [6] [µM]	SI (selectivity index, IC50 nontumor cells/IC50 cancer cells), IEC-18 [6]	IC50 [7] [µM]	(λabs)max [3] [nm]	percentage of apoptosis (B16-F10 cells) [%]	percentage of apoptosis (HepG2 cells) [%]	percentage of apoptosis (HT-29 cells) [%]	IC50 [8] [µM]	ΦF of the standard sample [9]
CC1(C)CC[C@]2(C(=O)O)CC[C@]3(C)C(=CC[C@@H]4[C@@]5(C)CC[C@H](OC(=O)CCCCCNc6ccc([N+](=O)[O-])c7nonc67)C(C)(C)[C@@H]5CC[C@]43C)[C@@H]2C1 [Compound 1, 3β-((6-((7-Nitrobenzo[c][1,2,5]oxadiazol-4-yl)amino)hexanoyl)oxy)olean-12-en-28-oic Acid]	37.9 ± 0.2	3	12.5 ± 0.1	2539	7.712	0.76	546	2.4 ± 0.1	39.7 ± 1.2	17	75 to 90	41 ± 0.3	2	19.5 ± 0.1	–	–	–	–	–	–
CC1(C)CC[C@]2(C(=O)O)CC[C@]3(C)C(=CC[C@@H]4[C@@]5(C)C[C@@H](OC(=O)CCCCCNc6ccc([N+](=O)[O-])c7nonc67)[C@H](O)C(C)(C)[C@@H]5CC[C@]43C)[C@@H]2C1 [Compound 2, 3β-Hydroxy-2α-((6-((7-nitrobenzo[c][1,2,5]oxadiazol-4-yl)amino)hexanoyl)oxy)olean-12-en-28-oic Acid]	10 ± 0.3	1	13.9 ± 0.6	3166	7.681	0.71	546	4.9 ± 0.4	14.8 ± 1.5	3	75 to 90	14.7 ± 0.7	2	6.6 ± 0.1	480	48	53	55	–	–
CC1(C)CC[C@]2(C(=O)OCc3ccccc3)CC[C@]3(C)C(=CC[C@@H]4[C@@]5(C)C[C@@H](OC(=O)CCCCCCCCCCNc6ccc([N+](=O)[O-])c7nonc67)[C@H](O)C(C)(C)[C@@H]5CC[C@]43C)[C@@H]2C1 [Compound 12]	–	–	80.9 ± 1.1	2710	7.633	0.46	546	80.8 ± 0.9	–	–	–	–	–	108 ± 3.8	480	–	–	–	> 80	–
CCN(CC)c1ccc2cc(-c3nc4ccccc4s3)c(=O)oc2c1 [Coumarin 6]	–	–	–	–	–	–	–	–	–	–	–	–	–	–	–	–	–	–	–	0.78
